{"source": "patent US20170190705A1", "about": "“Compositions and Methods for Inhibiting BMP” (THE BRIGHAM AND WOMAN'S HOSPITAL, INC., priority 2014, published 2017)", "type_in_all_cases": "biochemical", "key": {"FYN": {"molecular_target": "FYN (Homo sapiens, UniProt P06241)", "sequence (P06241 whole entry)": "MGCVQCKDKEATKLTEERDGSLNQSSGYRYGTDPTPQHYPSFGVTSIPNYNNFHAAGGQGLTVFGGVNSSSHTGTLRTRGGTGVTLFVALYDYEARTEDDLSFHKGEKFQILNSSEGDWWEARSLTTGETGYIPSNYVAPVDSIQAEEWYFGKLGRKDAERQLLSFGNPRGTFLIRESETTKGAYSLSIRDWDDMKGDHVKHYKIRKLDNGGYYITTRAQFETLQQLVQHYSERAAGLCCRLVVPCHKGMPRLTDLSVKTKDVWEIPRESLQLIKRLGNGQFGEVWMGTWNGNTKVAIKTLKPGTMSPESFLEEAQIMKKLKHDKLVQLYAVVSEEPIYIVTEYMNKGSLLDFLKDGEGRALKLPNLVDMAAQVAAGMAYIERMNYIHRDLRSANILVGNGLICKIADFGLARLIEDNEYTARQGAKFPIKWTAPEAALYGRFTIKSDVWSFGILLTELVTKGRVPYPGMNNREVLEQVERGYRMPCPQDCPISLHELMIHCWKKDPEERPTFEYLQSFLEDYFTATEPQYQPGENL", "assay": "Kinome profiling FYN", "settings": "read-out: Inhibitory activity FYN; for inhibition at 0.1 µM: 100 nM", "description": "(§1) . The kinome-wide selectivity was determined following the methods previously reported by Mohedas et al., ACS Chem Biol 2013, 8, 1291-1302 and Sanvitale et al., PLoS One 2013, 8, e62721."}, "CAMK1δ": {"molecular_target": "CAMK1δ (Homo sapiens, UniProt Q8IU85)", "sequence (Q8IU85 whole entry)": "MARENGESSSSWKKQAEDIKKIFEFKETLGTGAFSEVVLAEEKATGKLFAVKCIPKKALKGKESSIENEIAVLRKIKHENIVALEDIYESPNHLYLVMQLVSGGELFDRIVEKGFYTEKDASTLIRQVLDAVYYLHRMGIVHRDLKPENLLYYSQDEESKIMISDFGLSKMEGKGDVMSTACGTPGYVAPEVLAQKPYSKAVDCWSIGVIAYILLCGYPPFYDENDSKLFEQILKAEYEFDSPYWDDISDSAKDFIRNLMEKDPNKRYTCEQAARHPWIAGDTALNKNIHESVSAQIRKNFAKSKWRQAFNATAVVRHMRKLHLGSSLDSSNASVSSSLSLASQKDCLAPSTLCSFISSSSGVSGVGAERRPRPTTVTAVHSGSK", "assay": "Kinome profiling CAMK1δ", "settings": "read-out: Inhibitory activity CAMK1δ; for inhibition at 0.1 µM: 100 nM", "description": "as §1"}, "FGFR4": {"molecular_target": "FGFR4 (Homo sapiens, UniProt P22455)", "sequence (P22455 22-802)": "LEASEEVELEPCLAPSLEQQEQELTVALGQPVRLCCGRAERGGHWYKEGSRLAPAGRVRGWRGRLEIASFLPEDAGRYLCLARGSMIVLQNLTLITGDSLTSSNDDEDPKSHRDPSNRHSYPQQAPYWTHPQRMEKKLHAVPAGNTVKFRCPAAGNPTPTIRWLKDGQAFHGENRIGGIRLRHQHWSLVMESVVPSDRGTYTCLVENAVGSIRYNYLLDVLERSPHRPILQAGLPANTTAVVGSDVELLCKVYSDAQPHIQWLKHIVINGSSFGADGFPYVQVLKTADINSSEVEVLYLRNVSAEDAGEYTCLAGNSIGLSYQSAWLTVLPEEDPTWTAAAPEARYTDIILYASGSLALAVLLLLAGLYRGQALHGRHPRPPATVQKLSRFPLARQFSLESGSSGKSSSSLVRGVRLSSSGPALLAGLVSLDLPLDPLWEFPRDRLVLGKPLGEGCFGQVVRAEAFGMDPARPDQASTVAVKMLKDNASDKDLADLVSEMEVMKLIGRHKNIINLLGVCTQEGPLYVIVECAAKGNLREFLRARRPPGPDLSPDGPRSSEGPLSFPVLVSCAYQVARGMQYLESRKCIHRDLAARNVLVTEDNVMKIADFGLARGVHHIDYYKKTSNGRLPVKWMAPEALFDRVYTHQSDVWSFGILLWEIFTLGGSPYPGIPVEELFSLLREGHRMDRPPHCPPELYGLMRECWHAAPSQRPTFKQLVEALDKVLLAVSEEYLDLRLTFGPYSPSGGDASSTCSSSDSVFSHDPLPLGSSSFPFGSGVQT", "assay": "Kinome profiling FGFR4", "settings": "read-out: Inhibitory activity FGFR4; for inhibition at 0.1 µM: 100 nM", "description": "as §1"}, "FER": {"molecular_target": "FER (Homo sapiens, UniProt P16591)", "sequence (P16591 whole entry)": "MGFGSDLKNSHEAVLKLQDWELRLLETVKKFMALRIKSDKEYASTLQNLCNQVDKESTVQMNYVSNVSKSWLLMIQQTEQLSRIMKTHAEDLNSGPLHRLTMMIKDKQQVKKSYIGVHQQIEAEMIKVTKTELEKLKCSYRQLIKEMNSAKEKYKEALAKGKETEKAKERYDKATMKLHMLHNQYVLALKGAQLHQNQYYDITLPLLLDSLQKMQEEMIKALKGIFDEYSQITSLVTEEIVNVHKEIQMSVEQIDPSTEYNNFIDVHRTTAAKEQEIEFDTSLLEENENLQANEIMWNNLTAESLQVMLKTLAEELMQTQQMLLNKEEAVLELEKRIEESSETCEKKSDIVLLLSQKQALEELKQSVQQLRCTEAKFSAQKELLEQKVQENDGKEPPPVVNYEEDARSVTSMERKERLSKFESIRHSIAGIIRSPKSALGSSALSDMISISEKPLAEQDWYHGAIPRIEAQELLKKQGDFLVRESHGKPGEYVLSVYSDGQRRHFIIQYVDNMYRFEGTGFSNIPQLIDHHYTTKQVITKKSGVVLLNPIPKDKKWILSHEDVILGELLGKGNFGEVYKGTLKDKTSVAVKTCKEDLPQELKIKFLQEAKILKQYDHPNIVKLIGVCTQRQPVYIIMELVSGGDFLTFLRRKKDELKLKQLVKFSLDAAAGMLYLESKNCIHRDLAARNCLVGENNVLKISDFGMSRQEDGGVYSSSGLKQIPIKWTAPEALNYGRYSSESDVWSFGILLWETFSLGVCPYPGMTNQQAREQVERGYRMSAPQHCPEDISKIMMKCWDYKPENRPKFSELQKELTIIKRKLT", "assay": "Kinome profiling FER", "settings": "read-out: Inhibitory activity FER; for inhibition at 0.1 µM: 100 nM", "description": "as §1"}, "TBK1": {"molecular_target": "T1, TBK1 (Homo sapiens, UniProt Q9UHD2)", "T1 sequence (Q9UHD2 1-729)": "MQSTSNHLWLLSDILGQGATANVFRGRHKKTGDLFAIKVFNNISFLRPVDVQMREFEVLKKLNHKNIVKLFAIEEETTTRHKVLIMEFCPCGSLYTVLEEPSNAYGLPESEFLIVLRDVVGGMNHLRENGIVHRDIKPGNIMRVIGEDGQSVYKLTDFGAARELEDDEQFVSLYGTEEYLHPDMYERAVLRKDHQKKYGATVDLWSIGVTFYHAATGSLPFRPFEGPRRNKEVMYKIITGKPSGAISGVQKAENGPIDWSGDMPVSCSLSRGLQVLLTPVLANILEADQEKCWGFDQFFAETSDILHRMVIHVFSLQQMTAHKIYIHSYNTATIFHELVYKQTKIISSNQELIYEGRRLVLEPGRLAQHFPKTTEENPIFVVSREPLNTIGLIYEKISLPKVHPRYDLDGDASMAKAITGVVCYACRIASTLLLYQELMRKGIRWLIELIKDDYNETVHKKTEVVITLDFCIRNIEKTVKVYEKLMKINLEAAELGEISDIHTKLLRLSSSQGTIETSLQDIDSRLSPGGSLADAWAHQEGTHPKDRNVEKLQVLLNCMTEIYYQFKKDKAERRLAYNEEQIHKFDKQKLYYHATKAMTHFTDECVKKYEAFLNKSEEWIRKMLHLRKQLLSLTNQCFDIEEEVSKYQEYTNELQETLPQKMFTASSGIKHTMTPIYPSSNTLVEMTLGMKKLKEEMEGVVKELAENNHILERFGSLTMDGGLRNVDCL", "assay": "Kinome profiling TBK1", "settings": "read-out: Inhibitory activity TBK1; for inhibition at 0.1 µM: 100 nM", "description": "as §1"}, "AXL": {"molecular_target": "T2, AXL (Homo sapiens, UniProt P30530)", "T2 sequence (P30530 26-894)": "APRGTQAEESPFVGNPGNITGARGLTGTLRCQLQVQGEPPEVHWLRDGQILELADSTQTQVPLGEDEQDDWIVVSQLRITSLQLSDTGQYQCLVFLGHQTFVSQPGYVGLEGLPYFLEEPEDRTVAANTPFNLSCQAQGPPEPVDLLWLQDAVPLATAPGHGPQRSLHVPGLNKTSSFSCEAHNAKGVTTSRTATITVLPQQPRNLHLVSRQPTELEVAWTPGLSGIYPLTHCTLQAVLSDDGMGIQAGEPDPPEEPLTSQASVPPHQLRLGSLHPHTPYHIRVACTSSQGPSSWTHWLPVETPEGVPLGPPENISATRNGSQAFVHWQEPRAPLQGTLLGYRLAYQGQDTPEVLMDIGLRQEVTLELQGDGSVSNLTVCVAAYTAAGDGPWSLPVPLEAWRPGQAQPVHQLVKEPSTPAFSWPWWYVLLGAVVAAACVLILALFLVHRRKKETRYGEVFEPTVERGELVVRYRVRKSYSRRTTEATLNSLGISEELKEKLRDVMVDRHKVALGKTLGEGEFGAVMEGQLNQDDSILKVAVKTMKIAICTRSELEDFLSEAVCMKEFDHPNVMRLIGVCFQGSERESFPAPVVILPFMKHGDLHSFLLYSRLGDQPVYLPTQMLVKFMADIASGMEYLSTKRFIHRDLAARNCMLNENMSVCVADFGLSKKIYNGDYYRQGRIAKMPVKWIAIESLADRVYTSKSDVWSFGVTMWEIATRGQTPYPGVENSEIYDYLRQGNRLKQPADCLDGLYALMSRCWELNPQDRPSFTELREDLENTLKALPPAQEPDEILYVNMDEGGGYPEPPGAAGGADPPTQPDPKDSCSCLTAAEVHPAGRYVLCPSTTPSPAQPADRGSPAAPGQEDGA", "assay": "Kinome profiling AXL", "settings": "read-out: Inhibitory activity AXL; for inhibition at 0.1 µM: 100 nM", "description": "as §1"}, "TEC": {"molecular_target": "T3, TEC (Homo sapiens, UniProt P42680)", "T3 sequence (P42680 1-631)": "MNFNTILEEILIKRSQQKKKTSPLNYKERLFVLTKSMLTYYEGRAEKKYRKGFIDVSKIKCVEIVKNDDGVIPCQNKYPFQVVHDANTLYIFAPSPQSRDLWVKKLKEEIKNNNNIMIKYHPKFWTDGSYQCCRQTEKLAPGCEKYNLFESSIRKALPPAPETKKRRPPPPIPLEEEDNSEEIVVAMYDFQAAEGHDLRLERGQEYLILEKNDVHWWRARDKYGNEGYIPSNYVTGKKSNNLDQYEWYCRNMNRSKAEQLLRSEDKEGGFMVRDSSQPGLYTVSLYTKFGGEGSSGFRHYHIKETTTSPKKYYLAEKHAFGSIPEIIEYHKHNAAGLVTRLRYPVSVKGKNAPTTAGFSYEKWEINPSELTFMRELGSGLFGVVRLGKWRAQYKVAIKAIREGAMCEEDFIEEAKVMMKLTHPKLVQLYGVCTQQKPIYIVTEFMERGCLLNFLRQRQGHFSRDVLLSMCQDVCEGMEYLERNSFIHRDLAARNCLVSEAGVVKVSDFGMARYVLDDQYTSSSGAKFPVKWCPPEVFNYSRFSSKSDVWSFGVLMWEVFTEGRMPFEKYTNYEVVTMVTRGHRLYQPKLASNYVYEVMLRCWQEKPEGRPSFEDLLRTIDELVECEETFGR", "assay": "Kinome profiling TEC", "settings": "read-out: Inhibitory activity TEC; for inhibition at 0.1 µM: 100 nM", "description": "as §1"}, "CDK2/cyclinA": {"molecular_target": "CDK2/cyclinA (Homo sapiens, UniProt P24941)", "assay": "Kinome profiling CDK2/cyclinA", "settings": "read-out: Inhibitory activity CDK2/cyclinA; for inhibition at 0.1 µM: 100 nM", "description": "as §1"}}}
{"compound": "COc1cc(-c2cc(-c3ccc(N4CCNCC4)cc3)cnc2C)cc(OC)c1OC", "note": "[Compound 10, 1-(4-(6-methyl-5-(3,4,5-trimethoxyphenyl)pyridin-3-yl)phenyl)piperazine]", "values": [{"measurement": "inhibition at 0.1 µM", "setting": "FYN", "value": 8, "unit": "%"}, {"measurement": "inhibition at 1 µM", "setting": "FYN", "value": 36, "unit": "%"}, {"measurement": "inhibition at 0.1 µM", "setting": "CAMK1δ", "value": 1, "unit": "%"}, {"measurement": "inhibition at 1 µM", "setting": "CAMK1δ", "value": 2, "unit": "%"}, {"measurement": "inhibition at 0.1 µM", "setting": "FGFR4", "value": 1, "unit": "%"}, {"measurement": "inhibition at 1 µM", "setting": "FGFR4", "value": 2, "unit": "%"}, {"measurement": "inhibition at 0.1 µM", "setting": "FER", "value": 3, "unit": "%"}, {"measurement": "inhibition at 1 µM", "setting": "FER", "value": 3, "unit": "%"}, {"measurement": "inhibition at 0.1 µM", "setting": "TBK1", "value": 1, "unit": "%"}, {"measurement": "inhibition at 1 µM", "setting": "TBK1", "value": 4, "unit": "%"}, {"measurement": "inhibition at 0.1 µM", "setting": "AXL", "value": 1, "unit": "%"}, {"measurement": "inhibition at 1 µM", "setting": "AXL", "value": 7, "unit": "%"}, {"measurement": "inhibition at 0.1 µM", "setting": "TEC", "value": 0, "unit": "%"}, {"measurement": "inhibition at 1 µM", "setting": "TEC", "value": 0, "unit": "%"}, {"measurement": "inhibition at 0.1 µM", "setting": "CDK2/cyclinA", "value": 4, "unit": "%"}, {"measurement": "inhibition at 1 µM", "setting": "CDK2/cyclinA", "value": 1, "unit": "%"}]}
{"compound": "COc1cc(-c2cc(-c3ccc(N4CCNCC4)cc3)cnc2N)cc(OC)c1OC", "note": "[Compound 15, 5-(4-(piperazin-1-yl)phenyl)-3-(3,4,5-trimethoxyphenyl)pyridin-2-amine]", "values": [{"measurement": "inhibition at 0.1 µM", "setting": "FYN", "value": 40, "unit": "%"}, {"measurement": "inhibition at 1 µM", "setting": "FYN", "value": 79, "unit": "%"}, {"measurement": "inhibition at 0.1 µM", "setting": "CAMK1δ", "value": 0, "unit": "%"}, {"measurement": "inhibition at 1 µM", "setting": "CAMK1δ", "value": -1, "unit": "%"}, {"measurement": "inhibition at 0.1 µM", "setting": "FGFR4", "value": 1, "unit": "%"}, {"measurement": "inhibition at 1 µM", "setting": "FGFR4", "value": 0, "unit": "%"}, {"measurement": "inhibition at 0.1 µM", "setting": "FER", "value": 0, "unit": "%"}, {"measurement": "inhibition at 1 µM", "setting": "FER", "value": 6, "unit": "%"}, {"measurement": "inhibition at 0.1 µM", "setting": "TBK1", "value": 6, "unit": "%"}, {"measurement": "inhibition at 1 µM", "setting": "TBK1", "value": 23, "unit": "%"}, {"measurement": "inhibition at 0.1 µM", "setting": "AXL", "value": -4, "unit": "%"}, {"measurement": "inhibition at 1 µM", "setting": "AXL", "value": -1, "unit": "%"}, {"measurement": "inhibition at 0.1 µM", "setting": "TEC", "value": 5, "unit": "%"}, {"measurement": "inhibition at 1 µM", "setting": "TEC", "value": 24, "unit": "%"}, {"measurement": "inhibition at 0.1 µM", "setting": "CDK2/cyclinA", "value": 1, "unit": "%"}, {"measurement": "inhibition at 1 µM", "setting": "CDK2/cyclinA", "value": 2, "unit": "%"}]}
